Reference: paper PMC4008261, “Rewiring of regenerated axons by combining treadmill training with semaphorin3A inhibition” (Molecular Brain, 2014)

Key:
Caspase 1 = Caspase 1 (Homo sapiens, UniProt P29466); assay: Pharmacological profile: enzyme inhibition; format: biochemical
Text: (§1) Table 1 Pharmacological profile of SM-345431 (part 1) | column: IC50 (μm)

Caspase 3 = Caspase 3 (Homo sapiens, UniProt P42574); assay: Pharmacological profile: enzyme inhibition; format: biochemical
Text: as §1

Caspase 6 = Caspase 6 (Homo sapiens, UniProt P55212); assay: Pharmacological profile: enzyme inhibition; format: biochemical
Sequence of Caspase 6 (P55212 24-179 limits assumed, species assumed): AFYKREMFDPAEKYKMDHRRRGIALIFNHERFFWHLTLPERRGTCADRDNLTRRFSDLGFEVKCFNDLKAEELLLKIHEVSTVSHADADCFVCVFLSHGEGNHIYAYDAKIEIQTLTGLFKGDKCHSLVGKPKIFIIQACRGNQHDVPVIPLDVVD
Sequence of Caspase 6 (P55212 194-293 limits assumed, species assumed): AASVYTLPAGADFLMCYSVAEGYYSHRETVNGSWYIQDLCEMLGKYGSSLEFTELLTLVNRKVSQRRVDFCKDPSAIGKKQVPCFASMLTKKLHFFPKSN
Text: as §1

Caspase 7 = Caspase 7 (Homo sapiens, UniProt P55210); assay: Pharmacological profile: enzyme inhibition; format: biochemical
Text: as §1

Caspase 8 = Caspase 8 (Homo sapiens, UniProt Q14790); assay: Pharmacological profile: enzyme inhibition; format: biochemical
Sequence of Caspase 8 (Q14790 217-374 limits assumed, species assumed): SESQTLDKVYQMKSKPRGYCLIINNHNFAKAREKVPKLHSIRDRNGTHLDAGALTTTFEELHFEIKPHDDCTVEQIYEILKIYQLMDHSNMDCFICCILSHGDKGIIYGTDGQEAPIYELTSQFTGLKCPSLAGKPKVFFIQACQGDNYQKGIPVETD
Sequence of Caspase 8 (Q14790 385-479 limits assumed, species assumed): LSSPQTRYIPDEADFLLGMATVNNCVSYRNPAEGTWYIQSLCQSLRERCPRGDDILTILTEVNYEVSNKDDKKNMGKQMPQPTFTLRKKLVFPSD
Text: as §1

[1] = target: Matrix Metalloproteinase-1 (MMP-1) (Homo sapiens, UniProt P03956); assay: Pharmacological profile: enzyme inhibition; format: biochemical
Sequence of Matrix Metalloproteinase-1 (MMP-1) (P03956 100-469, species assumed): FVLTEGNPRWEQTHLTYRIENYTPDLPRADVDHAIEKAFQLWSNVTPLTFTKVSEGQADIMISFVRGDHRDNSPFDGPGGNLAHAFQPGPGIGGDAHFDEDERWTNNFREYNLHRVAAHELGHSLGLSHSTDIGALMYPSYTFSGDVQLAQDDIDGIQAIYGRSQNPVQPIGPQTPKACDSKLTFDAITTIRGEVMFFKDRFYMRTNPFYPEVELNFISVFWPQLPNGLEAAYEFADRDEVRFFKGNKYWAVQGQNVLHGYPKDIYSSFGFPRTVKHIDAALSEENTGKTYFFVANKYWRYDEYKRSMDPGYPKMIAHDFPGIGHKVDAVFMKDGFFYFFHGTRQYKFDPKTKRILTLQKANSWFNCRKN
Text: as §1

[2] = target: Matrix Metalloproteinase-2 (MMP-2) (Homo sapiens, UniProt P08253); assay: Pharmacological profile: enzyme inhibition; format: biochemical
Sequence of Matrix Metalloproteinase-2 (MMP-2) (P08253 110-660, species assumed): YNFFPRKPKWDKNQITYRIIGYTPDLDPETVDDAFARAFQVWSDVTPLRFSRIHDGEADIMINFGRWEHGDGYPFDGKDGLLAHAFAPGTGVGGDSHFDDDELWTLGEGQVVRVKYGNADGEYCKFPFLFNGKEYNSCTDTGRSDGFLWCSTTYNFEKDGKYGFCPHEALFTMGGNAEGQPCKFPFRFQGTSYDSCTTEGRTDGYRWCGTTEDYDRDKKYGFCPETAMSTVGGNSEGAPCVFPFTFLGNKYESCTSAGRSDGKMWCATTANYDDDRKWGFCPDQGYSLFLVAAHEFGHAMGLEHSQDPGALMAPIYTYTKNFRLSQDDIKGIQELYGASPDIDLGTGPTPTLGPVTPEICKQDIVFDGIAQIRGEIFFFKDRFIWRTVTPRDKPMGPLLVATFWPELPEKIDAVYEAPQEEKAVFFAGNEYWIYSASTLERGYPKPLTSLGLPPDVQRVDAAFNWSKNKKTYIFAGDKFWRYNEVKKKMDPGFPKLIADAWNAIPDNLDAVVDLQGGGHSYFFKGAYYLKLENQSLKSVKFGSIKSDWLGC
Text: as §1

[3] = target: Matrix Metalloproteinase-3 (MMP-3) (Homo sapiens, UniProt P08254); assay: Pharmacological profile: enzyme inhibition; format: biochemical
Sequence of Matrix Metalloproteinase-3 (MMP-3) (P08254 100-477, species assumed): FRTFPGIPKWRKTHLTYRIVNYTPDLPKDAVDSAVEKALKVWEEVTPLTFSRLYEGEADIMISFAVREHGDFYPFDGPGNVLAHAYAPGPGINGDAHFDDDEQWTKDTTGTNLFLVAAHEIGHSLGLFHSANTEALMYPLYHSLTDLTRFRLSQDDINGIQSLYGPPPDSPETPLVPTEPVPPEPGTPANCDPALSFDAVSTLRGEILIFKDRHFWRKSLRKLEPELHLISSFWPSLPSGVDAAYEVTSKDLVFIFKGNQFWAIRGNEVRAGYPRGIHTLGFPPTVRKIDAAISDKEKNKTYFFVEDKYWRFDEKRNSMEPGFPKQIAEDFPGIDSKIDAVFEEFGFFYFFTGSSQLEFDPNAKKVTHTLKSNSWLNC
Text: as §1

[4] = target: Matrix Metalloproteinase-7 (MMP-7) (Homo sapiens, UniProt P09237); assay: Pharmacological profile: enzyme inhibition; format: biochemical
Sequence of Matrix Metalloproteinase-7 (MMP-7) (P09237 95-267, species assumed): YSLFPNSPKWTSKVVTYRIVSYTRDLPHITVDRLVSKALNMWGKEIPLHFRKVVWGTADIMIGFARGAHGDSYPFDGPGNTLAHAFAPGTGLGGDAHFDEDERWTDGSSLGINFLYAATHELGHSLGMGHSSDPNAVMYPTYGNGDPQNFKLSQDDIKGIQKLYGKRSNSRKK
Text: as §1

[5] = target: Matrix Metalloproteinase-9 (MMP-9) (Homo sapiens, UniProt P14780); assay: Pharmacological profile: enzyme inhibition; format: biochemical
Text: as §1

[6] = target: Protein Tyrosine Phosphatase, CD45 (Homo sapiens, UniProt P08575); assay: Pharmacological profile: enzyme inhibition; format: biochemical
Sequence of Protein Tyrosine Phosphatase, CD45 (P08575 26-1306): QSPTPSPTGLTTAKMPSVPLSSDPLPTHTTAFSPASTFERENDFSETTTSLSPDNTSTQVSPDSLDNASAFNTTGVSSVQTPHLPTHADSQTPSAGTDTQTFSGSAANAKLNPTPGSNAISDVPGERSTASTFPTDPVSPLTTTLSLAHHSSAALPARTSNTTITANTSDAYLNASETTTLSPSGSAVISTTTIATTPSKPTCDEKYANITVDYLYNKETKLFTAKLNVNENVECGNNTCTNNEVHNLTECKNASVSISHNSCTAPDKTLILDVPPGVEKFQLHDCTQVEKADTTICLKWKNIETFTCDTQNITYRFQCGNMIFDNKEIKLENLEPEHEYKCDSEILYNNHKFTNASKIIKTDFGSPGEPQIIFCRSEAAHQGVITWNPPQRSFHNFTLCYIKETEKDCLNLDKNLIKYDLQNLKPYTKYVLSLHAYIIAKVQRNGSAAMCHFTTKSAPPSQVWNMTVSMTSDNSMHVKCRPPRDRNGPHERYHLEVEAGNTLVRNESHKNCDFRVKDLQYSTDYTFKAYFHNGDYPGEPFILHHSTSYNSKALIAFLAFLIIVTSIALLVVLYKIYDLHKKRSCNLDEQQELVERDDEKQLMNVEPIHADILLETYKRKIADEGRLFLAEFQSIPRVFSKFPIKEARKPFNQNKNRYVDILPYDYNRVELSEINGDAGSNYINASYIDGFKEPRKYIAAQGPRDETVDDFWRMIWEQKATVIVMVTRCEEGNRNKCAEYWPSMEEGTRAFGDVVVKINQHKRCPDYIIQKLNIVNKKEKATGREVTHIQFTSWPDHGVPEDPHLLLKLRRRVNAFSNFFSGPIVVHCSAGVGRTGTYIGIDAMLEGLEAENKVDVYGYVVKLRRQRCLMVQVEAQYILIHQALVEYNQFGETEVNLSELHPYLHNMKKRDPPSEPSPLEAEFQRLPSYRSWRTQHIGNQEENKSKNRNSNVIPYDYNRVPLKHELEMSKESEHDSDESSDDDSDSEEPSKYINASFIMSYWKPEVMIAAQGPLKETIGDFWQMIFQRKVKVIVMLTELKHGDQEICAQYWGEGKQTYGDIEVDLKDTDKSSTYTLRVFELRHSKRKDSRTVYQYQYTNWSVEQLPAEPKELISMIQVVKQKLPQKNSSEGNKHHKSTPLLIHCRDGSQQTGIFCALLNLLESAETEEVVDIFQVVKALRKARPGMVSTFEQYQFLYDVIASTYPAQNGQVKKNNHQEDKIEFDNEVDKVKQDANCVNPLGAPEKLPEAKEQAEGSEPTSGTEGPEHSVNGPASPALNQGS
Text: as §1

[7] = target: Protein Tyrosine Phosphatase, PTP1B (Homo sapiens, UniProt P18031); assay: Pharmacological profile: enzyme inhibition; format: biochemical
Sequence of Protein Tyrosine Phosphatase, PTP1B (P18031 whole entry): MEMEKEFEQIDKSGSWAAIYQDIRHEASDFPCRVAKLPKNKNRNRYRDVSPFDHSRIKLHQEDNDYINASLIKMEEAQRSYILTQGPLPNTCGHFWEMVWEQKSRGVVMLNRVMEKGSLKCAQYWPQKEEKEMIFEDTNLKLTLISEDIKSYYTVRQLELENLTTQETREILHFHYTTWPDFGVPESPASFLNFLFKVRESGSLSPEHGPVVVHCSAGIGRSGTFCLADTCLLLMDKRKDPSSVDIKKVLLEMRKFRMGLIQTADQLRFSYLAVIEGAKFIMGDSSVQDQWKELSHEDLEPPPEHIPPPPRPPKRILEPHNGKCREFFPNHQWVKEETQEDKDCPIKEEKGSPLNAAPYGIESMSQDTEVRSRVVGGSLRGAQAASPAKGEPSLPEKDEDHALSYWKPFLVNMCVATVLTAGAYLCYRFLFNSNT
Text: as §1

[8] = target: Protein Tyrosine Phosphatase, PTP1C (Homo sapiens, UniProt P29350); assay: Pharmacological profile: enzyme inhibition; format: biochemical
Sequence of Protein Tyrosine Phosphatase, PTP1C (P29350 whole entry): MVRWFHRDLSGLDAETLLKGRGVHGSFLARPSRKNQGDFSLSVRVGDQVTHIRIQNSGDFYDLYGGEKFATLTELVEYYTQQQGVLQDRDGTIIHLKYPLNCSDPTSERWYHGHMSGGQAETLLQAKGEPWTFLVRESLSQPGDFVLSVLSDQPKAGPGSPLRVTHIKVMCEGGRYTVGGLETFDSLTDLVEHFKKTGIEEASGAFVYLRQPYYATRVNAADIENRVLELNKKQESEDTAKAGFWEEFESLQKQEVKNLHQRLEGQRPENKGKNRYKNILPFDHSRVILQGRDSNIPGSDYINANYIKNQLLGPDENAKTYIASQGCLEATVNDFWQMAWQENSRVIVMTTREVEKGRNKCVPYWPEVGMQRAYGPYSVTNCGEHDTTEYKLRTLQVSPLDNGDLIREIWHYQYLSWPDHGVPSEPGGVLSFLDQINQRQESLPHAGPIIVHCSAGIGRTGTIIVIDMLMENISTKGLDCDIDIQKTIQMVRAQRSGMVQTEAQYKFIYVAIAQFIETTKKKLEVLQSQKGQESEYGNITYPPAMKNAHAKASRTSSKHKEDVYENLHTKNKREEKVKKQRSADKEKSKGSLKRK
Text: as §1

[9] = target: Protein Tyrosine Phosphatase, T-Cell (Homo sapiens, UniProt P17706); assay: Pharmacological profile: enzyme inhibition; format: biochemical
Text: as §1

[10] = target: Sphingomyelinase, Neutral (N-SMase); assay: Pharmacological profile: enzyme inhibition; format: biochemical
Text: as §1

[11] = tested on: Adhesion, ICAM-1-Mediated; assay: Pharmacological profile: cell adhesion; format: cell-based
Text: as §1

[12] = tested on: Adhesion, VCAM-1-Mediated; assay: Pharmacological profile: cell adhesion; format: cell-based
Text: as §1

[13] = tested on: Adhesion, fibronectin-mediated; assay: Pharmacological profile: cell adhesion; format: cell-based
Text: as §1

[14] = tested on: Cell proliferation, B-Cell+LPS; assay: Pharmacological profile: cell proliferation; format: cell-based
Text: as §1

[15] = tested on: Cell proliferation, T-Cell+Con A; assay: Pharmacological profile: cell proliferation; format: cell-based
Text: as §1

SCT adult rats = assay: Kinematic analysis of hindlimb motor performance on a treadmill; format: in vivo, rat
Method: Rats were randomly divided into the following three experimental groups: 1) untrained + placebo, 2) untrained + SM-345431 and 3) trained + SM-345431. SCT was performed, and SM-345431 or placebo was administered at the lesion site via the newly developed DDS, which is described in detail below. Starting 1 week post-injury, treadmill training commenced with a BSS. Kinematic tests were performed monthly for 3 months after SCT using a rodent robotic device (Rodent robot 3000, Robomedica Inc.) that primarily assessed the performance of plantar stepping on a treadmill. Treadmill training was continued throughout the experimental period.
A robotic device (rodent robot 3000, Robomedica Inc.) was used to train the SCT rats. Briefly, the device consisted of a computer-controlled BSS, two lightweight robotic arms and a treadmill with variable motorized speeds. The ankles of the hindlimbs of rats were held with a pair of releasable rope cuffs, which were then secured to robotic arms to track ankle trajectory in the horizontal and vertical directions. A computer-controlled body support arm was used to control the load that was applied to the hindlimbs and to maintain body equilibrium. Rats were secured in a cloth vest and attached to the body support arm with a hook-and-loop fabric. Hard rope cuffs were attached to the hindlimbs of rats with the robotic arm during training.
Additionally, improvements in motor performance were more obvious when the treadmill training was initiated at earlier time points after SCT. Therefore, training was initiated as early as 1 week after SCT. The fixed parameters were set at 50% body weight support (BWS), 20 min/day and 5 days/week. The animals were adapted to the training via increasing velocity; a velocity of 1 cm/s was used in the first week, and then the velocity was increased by 2 cm/s every 2 weeks for the first 2 months after injury (i.e., 1 cm/s to 3 cm/s to 5 cm/s). […] Once the rats dragged their hindlimbs and stopped walking on the treadmill, a trainer brought their bodies back to the original walking position. The step ability of SCT rats on the treadmill improved gradually over the course of the first 2 months following injury. However, this improvement was attenuated at time points later than 2 months after injury.
To evaluate the locomotor capability of SCT rats in detail, the aforementioned robotic device was employed. Each robotic arm tracked the two-dimensional movement of the ankle, and the trajectory of the ankle movement was then recorded on a computer for kinematic analyses. Not all the rats were able to walk by themselves on the treadmill by the last time point of the experiment. Therefore, when performing the tests, the degree of BWS and treadmill speed were titrated to obtain the maximum walking performance on the treadmill. As a result of this titration, the behavioral tests were performed at 70% BWS and a treadmill velocity of 1 cm/s each month after SCT. The duration of testing was 1 min per rat to minimize training effects during testing. The methods of previous reports were followed with slight adaptations. Briefly, the ankle trajectory in each plane was recorded by the robotic arm and a computer. Then, the toe off (TO) and paw contact (PC) events in each step cycle were identified using Rodent Robot 3000 software. All kinematic characteristics were obtained when TO and PC were identified; as a result, parameters such as the duration phase, the swing phase of the step cycle and the length and height of the step were calculated. The number of animals used in these behavioral tests was 32 (control: n = 9, SM-345431: n = 12, combined: n = 11).

[16] = SM-345431 alone, 70% BWS, 1 cm/s

Sequence of Caspase 1 (P29466 120-297 limits assumed, species assumed): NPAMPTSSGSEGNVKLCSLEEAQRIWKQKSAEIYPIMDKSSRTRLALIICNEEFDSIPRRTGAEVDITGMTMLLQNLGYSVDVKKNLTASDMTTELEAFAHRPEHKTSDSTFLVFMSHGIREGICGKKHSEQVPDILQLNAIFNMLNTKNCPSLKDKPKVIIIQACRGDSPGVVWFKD
Sequence of Caspase 1 (P29466 317-404 limits assumed, species assumed): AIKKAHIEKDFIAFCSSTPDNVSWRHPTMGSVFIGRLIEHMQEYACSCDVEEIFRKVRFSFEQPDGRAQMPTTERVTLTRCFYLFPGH
Sequence of Caspase 3 (P42574 29-175 limits assumed, species assumed): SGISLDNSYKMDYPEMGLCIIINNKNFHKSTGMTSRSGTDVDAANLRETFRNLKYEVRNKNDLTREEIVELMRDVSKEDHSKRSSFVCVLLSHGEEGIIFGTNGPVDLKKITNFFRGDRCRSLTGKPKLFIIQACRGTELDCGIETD
Sequence of Caspase 3 (P42574 176-277 limits assumed, species assumed): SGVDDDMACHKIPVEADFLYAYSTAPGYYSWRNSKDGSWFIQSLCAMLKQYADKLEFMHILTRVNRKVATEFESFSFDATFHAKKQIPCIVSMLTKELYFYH

**Q.** How did the IC50 (Caspase 1) turn out when CC(=O)c1cc2c(=O)c3c(C(=O)O)c(O)c(O)cc3oc2c(C(C)=O)c1-c1coc2cc(O)c(O)c(C(=O)O)c2c1=O [SM-345431, Vinaxanthone] was run?
**A.** > 10 µM

**Q.** What about the IC50 (Caspase 3) of the same molecule?
**A.** > 10 µM

**Q.** What about the IC50 (Caspase 6) of the same molecule?
**A.** > 10 µM

**Q.** What about the IC50 (Caspase 7) of the same molecule?
**A.** > 10 µM

**Q.** And the IC50 (Caspase 8)?
**A.** > 10 µM

**Q.** And the IC50 [1]?
**A.** > 10 µM

**Q.** What about the IC50 [2] of the same molecule?
**A.** > 10 µM

**Q.** And the IC50 [3]?
**A.** > 10 µM

**Q.** And the IC50 [4]?
**A.** 10 µM

**Q.** What about the IC50 [5] of the same molecule?
**A.** > 10 µM

**Q.** What about the IC50 [6] of the same molecule?
**A.** > 10 µM

**Q.** And the IC50 [7]?
**A.** > 10 µM

**Q.** What about the IC50 [8] of the same molecule?
**A.** > 10 µM

**Q.** What about the IC50 [9] of the same molecule?
**A.** > 10 µM

**Q.** And the IC50 [10]?
**A.** > 10 µM

**Q.** What about the IC50 [11] of the same molecule?
**A.** > 10 µM

**Q.** What about the IC50 [12] of the same molecule?
**A.** > 10 µM

**Q.** What about the IC50 [13] of the same molecule?
**A.** > 10 µM

**Q.** And the IC50 [14]?
**A.** > 10 µM

**Q.** And the IC50 [15]?
**A.** > 10 µM

**Q.** What about the “plantar step walking on a treadmill with the BSS” value (SCT adult rats; SM-345431 alone, without extensive treadmill training) of the same molecule?
**A.** did not result in plantar step walking

**Q.** And the “effect on the step height parameter” value (SCT adult rats; [16])?
**A.** moderate and statistically insignificant

**Q.** And the “locomotor function on a treadmill, step length parameters (average and maximum)” value (SCT adult rats; [16])?
**A.** improved locomotor function

**Q.** And the “step cycle area versus control SCT rats” value (SCT adult rats; SM-345431 alone, P < 0.05 at 3 months)?
**A.** statistically significant enhancement

**Q.** And the “effect on the step height parameter (average and maximum)” value (SCT adult rats; SM-345431 combined with extensive treadmill training)?
**A.** greater enhancement was observed

**Q.** What about the “duration of continuous plantar step walking on a treadmill with the BSS” value (SCT adult rats; SM-345431 combined with extensive treadmill training, all rats) of the same molecule?
**A.** at least 30 min

**Q.** What about the “step cycle area versus control SCT rats” value (SCT adult rats; SM-345431 combined with treadmill training, P < 0.05 first month, P < 0.01 second and third month) of the same molecule?
**A.** even greater improvement
